# Results taken from ChEMBL document CHEMBL3885881, “DrugMatrix”.
# Organism: Rattus norvegicus
# Assay: DrugMatrix - Regimen: Daily Repeat
# Type: toxicity, organism-based, Sprague-Dawley
# Set-up: regimen Daily Repeat, gender Male, age 6-8 weeks
# Settings: in vivo, po, route oral GAVAGE; for ABSOLUTE MONOCYTE / ABSOLUTE SEGMENTED NEUTROPHIL / BASOPHIL / EOSINOPHIL / ERYTHROCYTE COUNT / HEMATOCRIT / HEMOGLOBIN / LEUKOCYTE COUNT / LYMPHOCYTE / MEAN CORPUSCULAR HEMOGLOBIN / MEAN CORPUSCULAR HEMOGLOBIN CONCENTRATION / MEAN CORPUSCULAR VOLUME / MONOCYTE / NEUTROPHIL / NUCLEATED RED BLOOD CELLS / PLATELET COUNT / ABSOLUTE BASOPHIL / ABSOLUTE EOSINOPHIL / ABSOLUTE LYMPHOCYTE: tissue Blood; for ALANINE AMINOTRANSFERASE / ALBUMIN / ALKALINE PHOSPHATASE / ASPARTATE AMINOTRANSFERASE / BLOOD UREA NITROGEN / CARBON DIOXIDE / CHLORIDE / CHOLESTEROL / CREATINE PHOSPHOKINASE / CREATININE / GLUCOSE / LACTATE DEHYDROGENASE / LIPASE / PHOSPHORUS / POTASSIUM / SODIUM / TOTAL BILIRUBIN / TOTAL PROTEIN / URIC ACID: tissue Plasma
# [1] = 20 mg/kg, 120 h, dose level Low, time 5 day, […]
# [2] = 54 mg/kg, 72 h, dose level M1, time 3 day, vehicle 100 % WATER
# [3] = 54 mg/kg, 120 h, dose level M1, time 5 day, vehicle 100 % WATER
# [4] = 160 mg/kg, 72 h, dose level High, time 3 day, […]
# [5] = 160 mg/kg, 120 h, dose level High, time 5 day, […]
smiles,measurement,setting,value
Cn1cnc([N+](=O)[O-])c1Sc1ncnc2nc[nH]c12 [AZATHIOPRINE],ABSOLUTE MONOCYTE,[1],73.67 CELLS/uL
same,ABSOLUTE SEGMENTED NEUTROPHIL,[1],134 CELLS/uL
same,BASOPHIL,[1],0%
same,EOSINOPHIL,[1],0%
same,ERYTHROCYTE COUNT,[1],5 x10E6/uL
same,HEMATOCRIT,[1],31.27%
same,HEMOGLOBIN,[1],12.3 G/DL
same,LEUKOCYTE COUNT,[1],5.33 x10E3/uL
same,LYMPHOCYTE,[1],96%
same,MEAN CORPUSCULAR HEMOGLOBIN,[1],24.53 pg
same,MEAN CORPUSCULAR HEMOGLOBIN CONCENTRATION,[1],39.33 G/DL
same,MEAN CORPUSCULAR VOLUME,[1],62.43 fL
same,MONOCYTE,[1],1.33%
same,NEUTROPHIL,[1],2.67%
same,NUCLEATED RED BLOOD CELLS,[1],0 /100WBC
same,PLATELET COUNT,[1],1346.67 x10E3/uL
same,ALANINE AMINOTRANSFERASE,[1],45.33 u/L
same,ALBUMIN,[1],4.33 G/DL
same,ALKALINE PHOSPHATASE,[1],305 u/L
same,ASPARTATE AMINOTRANSFERASE,[1],83 u/L
same,BLOOD UREA NITROGEN,[1],14 mg/dL
same,CARBON DIOXIDE,[1],29.33 mmol/L
same,CHLORIDE,[1],104.33 MEQ/L
same,CHOLESTEROL,[1],75 mg/dL
same,CREATINE PHOSPHOKINASE,[1],212.33 u/L
same,CREATININE,[1],0.4 mg/dL
same,GLUCOSE,[1],152.67 mg/dL
same,LACTATE DEHYDROGENASE,[1],68 u/L
same,LIPASE,[1],13 u/L
same,PHOSPHORUS,[1],10.93 mg/dL
same,POTASSIUM,[1],5.68 MEQ/L
same,SODIUM,[1],146.9 MEQ/L
same,TOTAL BILIRUBIN,[1],0.1 mg/dL
same,TOTAL PROTEIN,[1],6.67 G/DL
same,URIC ACID,[1],0.33 mg/dL
same,ABSOLUTE BASOPHIL,[2],0 CELLS/uL
same,ABSOLUTE EOSINOPHIL,[2],0 CELLS/uL
same,ABSOLUTE LYMPHOCYTE,[2],10600.67 CELLS/uL
same,ABSOLUTE MONOCYTE,[2],39.33 CELLS/uL
same,ABSOLUTE SEGMENTED NEUTROPHIL,[2],326.67 CELLS/uL
same,BASOPHIL,[2],0%
same,EOSINOPHIL,[2],0%
same,ERYTHROCYTE COUNT,[2],5.04 x10E6/uL
same,HEMATOCRIT,[2],31.57%
same,HEMOGLOBIN,[2],12.03 G/DL
same,LEUKOCYTE COUNT,[2],10.97 x10E3/uL
same,LYMPHOCYTE,[2],96.67%
same,MEAN CORPUSCULAR HEMOGLOBIN,[2],23.9 pg
same,MEAN CORPUSCULAR HEMOGLOBIN CONCENTRATION,[2],38.13 G/DL
same,MEAN CORPUSCULAR VOLUME,[2],62.73 fL
same,MONOCYTE,[2],0.33%
same,NEUTROPHIL,[2],3%
same,NUCLEATED RED BLOOD CELLS,[2],0 /100WBC
same,PLATELET COUNT,[2],1322.33 x10E3/uL
same,ALANINE AMINOTRANSFERASE,[2],39.67 u/L
same,ALBUMIN,[2],4.23 G/DL
same,ALKALINE PHOSPHATASE,[2],313.33 u/L
same,ASPARTATE AMINOTRANSFERASE,[2],66 u/L
same,BLOOD UREA NITROGEN,[2],10.67 mg/dL
same,CARBON DIOXIDE,[2],28.67 mmol/L
same,CHLORIDE,[2],100 MEQ/L
same,CHOLESTEROL,[2],81.67 mg/dL
same,CREATINE PHOSPHOKINASE,[2],160.33 u/L
same,CREATININE,[2],0.25 mg/dL
same,GLUCOSE,[2],157.33 mg/dL
same,LACTATE DEHYDROGENASE,[2],114.33 u/L
same,LIPASE,[2],13 u/L
same,PHOSPHORUS,[2],10.63 mg/dL
same,POTASSIUM,[2],6.03 MEQ/L
same,SODIUM,[2],141.9 MEQ/L
same,TOTAL BILIRUBIN,[2],0.13 mg/dL
same,TOTAL PROTEIN,[2],5.97 G/DL
same,URIC ACID,[2],1.17 mg/dL
same,ABSOLUTE BASOPHIL,[3],0 CELLS/uL
same,ABSOLUTE EOSINOPHIL,[3],0 CELLS/uL
same,ABSOLUTE LYMPHOCYTE,[3],4380.67 CELLS/uL
same,ABSOLUTE MONOCYTE,[3],0 CELLS/uL
same,ABSOLUTE SEGMENTED NEUTROPHIL,[3],119.33 CELLS/uL
same,BASOPHIL,[3],0%
same,EOSINOPHIL,[3],0%
same,ERYTHROCYTE COUNT,[3],4.85 x10E6/uL
same,HEMATOCRIT,[3],31.6%
same,HEMOGLOBIN,[3],12.13 G/DL
same,LEUKOCYTE COUNT,[3],4.5 x10E3/uL
same,LYMPHOCYTE,[3],97.33%
same,MEAN CORPUSCULAR HEMOGLOBIN,[3],25 pg
same,MEAN CORPUSCULAR HEMOGLOBIN CONCENTRATION,[3],38.37 G/DL
same,MEAN CORPUSCULAR VOLUME,[3],65.07 fL
same,MONOCYTE,[3],0%
same,NEUTROPHIL,[3],2.67%
same,NUCLEATED RED BLOOD CELLS,[3],0 /100WBC
same,PLATELET COUNT,[3],1116.33 x10E3/uL
same,ALANINE AMINOTRANSFERASE,[3],29.67 u/L
same,ALBUMIN,[3],4.6 G/DL
same,ALKALINE PHOSPHATASE,[3],184.33 u/L
same,ASPARTATE AMINOTRANSFERASE,[3],65.33 u/L
same,BLOOD UREA NITROGEN,[3],14 mg/dL
same,CARBON DIOXIDE,[3],33 mmol/L
same,CHLORIDE,[3],96.33 MEQ/L
same,CHOLESTEROL,[3],91.33 mg/dL
same,CREATINE PHOSPHOKINASE,[3],188.33 u/L
same,CREATININE,[3],0.26 mg/dL
same,GLUCOSE,[3],159.67 mg/dL
same,LACTATE DEHYDROGENASE,[3],98.33 u/L
same,LIPASE,[3],14 u/L
same,PHOSPHORUS,[3],9.43 mg/dL
same,POTASSIUM,[3],5.71 MEQ/L
same,SODIUM,[3],143.23 MEQ/L
same,TOTAL BILIRUBIN,[3],0.13 mg/dL
same,TOTAL PROTEIN,[3],6.97 G/DL
same,URIC ACID,[3],0.23 mg/dL
same,ABSOLUTE BASOPHIL,[4],0 CELLS/uL
same,ABSOLUTE EOSINOPHIL,[4],0 CELLS/uL
same,ABSOLUTE LYMPHOCYTE,[4],4093.67 CELLS/uL
same,ABSOLUTE MONOCYTE,[4],37.33 CELLS/uL
same,ABSOLUTE SEGMENTED NEUTROPHIL,[4],535.67 CELLS/uL
same,BASOPHIL,[4],0%
same,EOSINOPHIL,[4],0%
same,ERYTHROCYTE COUNT,[4],5.12 x10E6/uL
same,HEMATOCRIT,[4],34.5%
same,HEMOGLOBIN,[4],13.07 G/DL
same,LEUKOCYTE COUNT,[4],4.67 x10E3/uL
same,LYMPHOCYTE,[4],87%
same,MEAN CORPUSCULAR HEMOGLOBIN,[4],25.6 pg
same,MEAN CORPUSCULAR HEMOGLOBIN CONCENTRATION,[4],37.87 G/DL
same,MEAN CORPUSCULAR VOLUME,[4],67.47 fL
same,MONOCYTE,[4],0.67%
same,NEUTROPHIL,[4],12.33%
same,NUCLEATED RED BLOOD CELLS,[4],0 /100WBC
same,PLATELET COUNT,[4],1028 x10E3/uL
same,ALANINE AMINOTRANSFERASE,[4],39.33 u/L
same,ALBUMIN,[4],3.87 G/DL
same,ALKALINE PHOSPHATASE,[4],207.67 u/L
same,ASPARTATE AMINOTRANSFERASE,[4],81.33 u/L
same,BLOOD UREA NITROGEN,[4],10.33 mg/dL
same,CARBON DIOXIDE,[4],36 mmol/L
same,CHLORIDE,[4],107.67 MEQ/L
same,CHOLESTEROL,[4],84.67 mg/dL
same,CREATINE PHOSPHOKINASE,[4],296.67 u/L
same,CREATININE,[4],0.13 mg/dL
same,GLUCOSE,[4],192.33 mg/dL
same,LACTATE DEHYDROGENASE,[4],87.67 u/L
same,LIPASE,[4],11.33 u/L
same,PHOSPHORUS,[4],7.6 mg/dL
same,POTASSIUM,[4],5.08 MEQ/L
same,SODIUM,[4],138.17 MEQ/L
same,TOTAL BILIRUBIN,[4],0.13 mg/dL
same,TOTAL PROTEIN,[4],5.63 G/DL
same,URIC ACID,[4],0.3 mg/dL
same,ABSOLUTE BASOPHIL,[5],0 CELLS/uL
same,ABSOLUTE EOSINOPHIL,[5],0 CELLS/uL
same,ABSOLUTE LYMPHOCYTE,[5],1710 CELLS/uL
same,ABSOLUTE MONOCYTE,[5],38 CELLS/uL
same,ABSOLUTE SEGMENTED NEUTROPHIL,[5],152 CELLS/uL
same,BASOPHIL,[5],0%
same,EOSINOPHIL,[5],0%
same,ERYTHROCYTE COUNT,[5],7.48 x10E6/uL
same,HEMATOCRIT,[5],45.7%
same,HEMOGLOBIN,[5],15.7 G/DL
same,LEUKOCYTE COUNT,[5],1.9 x10E3/uL
same,LYMPHOCYTE,[5],90%
same,MEAN CORPUSCULAR HEMOGLOBIN,[5],21 pg
same,MEAN CORPUSCULAR HEMOGLOBIN CONCENTRATION,[5],34.4 G/DL
same,MEAN CORPUSCULAR VOLUME,[5],61.1 fL
same,MONOCYTE,[5],2%
same,NEUTROPHIL,[5],8%
same,NUCLEATED RED BLOOD CELLS,[5],0 /100WBC
same,PLATELET COUNT,[5],666 x10E3/uL
same,ALANINE AMINOTRANSFERASE,[5],237 u/L
same,ALBUMIN,[5],2.8 G/DL
same,ALKALINE PHOSPHATASE,[5],281 u/L
same,ASPARTATE AMINOTRANSFERASE,[5],835 u/L
same,BLOOD UREA NITROGEN,[5],15 mg/dL
same,CARBON DIOXIDE,[5],36 mmol/L
same,CHLORIDE,[5],106 MEQ/L
same,CHOLESTEROL,[5],13 mg/dL
same,CREATINE PHOSPHOKINASE,[5],348 u/L
same,CREATININE,[5],0.38 mg/dL
same,GLUCOSE,[5],192 mg/dL
same,LACTATE DEHYDROGENASE,[5],280 u/L
same,LIPASE,[5],10 u/L
same,PHOSPHORUS,[5],6.3 mg/dL
same,POTASSIUM,[5],4.73 MEQ/L
same,SODIUM,[5],147 MEQ/L
same,TOTAL BILIRUBIN,[5],0.2 mg/dL
same,TOTAL PROTEIN,[5],3.4 G/DL
same,URIC ACID,[5],0.2 mg/dL
